Results taken from patent publication US8221773B2, “Hydrogels and uses thereof” (University of Delaware, priority 2004, dated 2012).
“Also recorded” adds a separate entry of the source. Where no end group is shown, it is not given here.

Experiments:
[1] = Oscillatory rheology of peptide hydrogels (storage and loss moduli); type: physicochemical; conditions: 2 wt %, pH 9, 20° C, 6 Hz, 1% strain
[2] = CD spectroscopy of peptide folding (random coil vs β-sheet); type: physicochemical
Procedure: Time-dependent circular dichroism (CD) studies support a hydrogelation mechanism consistent with intramolecular hairpin formation followed by self-assembly. […] At temperatures >25° C. the folding and self-assembly of MAX1 occurs on the order of seconds. […] This behavior is consistent across all spectro- and microscopic methods used to interrogate MAX1. For example, at micromolar concentrations used for the CD studies shown in FIGS. 4A and 4B, self-assembly takes hours at 20° C. At millimolar concentrations, such as those used in the rheological studies described below, self-assembly leading to hydrogel takes minutes at 20° C.
The reversibility of the folding and self-assembly process was investigated by measuring θ216 as a function of pH and time as shown in FIG. 4C. CD of a stirred solution of MAX1 at pH 5.5 indicates random coil conformation. Adjusting the pH to 9.0 by the addition of NaOH results in β-sheet formation as expected. However, subsequent adjustment of the pH to 6.0 results in complete loss of sheet signal and full recovery of random coil signal. […] Again, this reversible behavior is not observed in hydrogels formed from amyloid/prion-like fibrils.
In some embodiments of the invention, various functionalities (e.g., cell adhesion epitopes, receptor agonists, receptor antagonists, ligands, small molecules, etc) may be incorporated into the hairpin hydrogel scaffold. One way to accomplish this would be to functionalize one or more amino acid side chains of the peptide. […] In some embodiments, the moieties to be incorporated at a particular side chain may be much larger (e.g. RGD-based motifs) and may contain charged residues. MAX5 (VKVKVKVKV^DPPTKVKEKVKV-NH2) was prepared to investigate the possibility of incorporating a charged residue on the hydrophobic face of MAX1. The sequence contains a glutamic acid residue at position 16 which is negatively charged at basic pH where MAX1 normally folds and assembles. […] However, alterations to the hydrophilic face of MAX1 are well tolerated. Sequences in which one or two lysine residues are replaced with other residues such as cysteine, serine, and glutamic acid are capable of folding and self-assembly into rigid hydrogels (data not shown).
The peptides described above contain identical turn sequences, namely (-V^DPPT-). This sequence has a strong propensity to form a type II′ turn and therefore helps to drive intramolecular folding. Since intramolecular folding must occur prior to self-assembly, alterations to this turn sequence that inhibit turn structure formation can be used to modulate intramolecular folding and self-assembly leading to hydrogelation. MAX9 was prepared to probe the importance of the turn region (VKVKVKVKV^LPPTKVKVKVKV-NH2). […]

[3] = system: fibroblasts (NIH 3T3, mouse); assay: Fibroblast adhesion and proliferation on hydrogel by optical microscopy; type: cell-based
Procedure: These cells were used as a model system because of their importance in connective tissue development and their easily distinguished morphology when adhered to the hydrogel scaffold. Qualitative studies were performed in which cells were added to either polystyrene control wells or wells containing a uniform slab (3 mm thick) of MAX1-hydrogel. Cell adhesion was qualitatively monitored via direct observation of cell spreading after four hours from the time of initial cell seeding by optical microscopy (a quantitative cell attachment assay is described below, see also Akiyama, S. K. Functional analysis of cell adhesion: Quantitation of cell-matrix attachment, 2002; Vol. 69, pp 281-296). Non-adhered fibroblasts have rounded morphologies and adhered fibroblasts have spread morphologies Proliferation was measured both qualitatively by optical microscopy and quantitatively by a ^3H thymidine-based cell seeding assay as described below. Hydrogels were prepared in 48 well tissue culture plates by either one of the following protocols. Protocol 1: MAX1 was dissolved in water (resulting in an acidic solution, pH~5) and an equal volume of buffer (pH 9, 250 mM borate, 20 mM NaCl) was added at room temperature to induce folding/self-assembly resulting in a 2 wt % hydrogel. The resulting gel was bathed in DMEM containing 10% calf serum and […] gentamicin. This allowed media to permeate throughout the gel and adjust the pH to 7.3 The storage moduli (rigidity) of gels prepared by protocol 1 are about 1600 Pa. Protocol 2: MAX1 was dissolved in water and an equal volume of serum free DMEM containing […] gentamicin was added to induce folding/self-assembly affording 2 wt % hydrogels. Depending on the experiment, DMEM containing calf serum can then be added to introduce serum proteins. The storage moduli of gels prepared by protocol 2 are about 1200 Pa. […] Proliferation of the cells occurs until confluency is reached, usually around 72 hours if 10^4 cells are initially plated, FIG. 16B. Cells remain viable for at least a month as long as fresh media is provided (we stopped the assay after 1 month). Cells added to control wells containing no gel show similar behavior, FIGS. 16 C and D. In FIGS. 16A-D, cells are plated in the presence of DMEM containing 10% calf serum. Serum proteins may help mediate cellular adhesion to the hydrogel by first coating the scaffold. To determine if the hydrogel scaffold alone is conducive to cell adhesion, cells were plated onto 2 wt. % hydrogels in the absence of serum. […] The incorporation of cell binding epitopes in peptides used in hydrogel formation may be used to enhance cell adhesion in the absence of serum.

Sequence: VKVKVKVK V^DPPT KVKVKVKV-NH2 (not fully specified (C-terminus)) [MAX1]
- gel storage modulus after 30 minutes [1]: ~600 Pa
- time to plateau of β-sheet formation (ellipticity at 218 nm) ([2]; 2.0 wt %, pH 7.4, 150 mM KF, 37° C): 15 min
- reversibility of folding and self-assembly with pH ([2]; stirred 300 μM solution, pH 5.5 to 9.0 to 6.0, 20° C): reversible
- time to confluency ([3]; 2 wt % gel, 10^4 cells initially plated, DMEM with 10% calf serum): around 72 hours
- fibroblast adhesion to gel surface in the presence of serum ([3]; 2 wt % gel, DMEM with 10% calf serum, after four hours): adhered; also recorded: efficiently attached
- fibroblast attachment and spreading in the absence of serum, compared to serum containing cultures ([3]; 2 wt. % hydrogels, after about four hours): to a lesser extent; also recorded: less efficiently
- cell proliferation after addition of serum at four hours ([3]; 2 wt. % hydrogels, plated without serum, 72 hours): near confluency
- time cells remain viable on gel ([3]; fresh media provided): ≥ 1 month
